{
  "source": "patent US10736968B2",
  "about": "“Cellular signalling inhibitors, their formulations and methods thereof” (INVICTUS ONCOLOGY PVT. LTD., priority 2016, dated 2020)",
  "system": "macrophages",
  "test": "Repolarization of IL4-skewed M2 macrophages to M1-like state after washout (FACS)",
  "assay_type": "cell-based",
  "details": "IL4 24 hours, inhibitor 4 hours, washed, fresh media 12-72 hours",
  "method": "Activity Studies of Compound of Formula I • Efficacy of BLN101 vs BLZ945 on the ability to inhibit CSF1R in vitro is studied. RAW264.7 cells are treated with BLZ945 (67 nM) or BLN101 (67 nM) for different time points, at the end of which the cells were exposed to CSF1 (10 ng/ml) for 20 min. The cells were then lysed and analyzed for phosphorylated CSF1R levels. […] Efficacy of BLN101 (in formulation AK750) vs BLZ945 on increase in iNOS expression in vitro is studied. It is observed that exposure to Tumor Conditioned Media over 24 h decreases INOS levels. Measurement of the expression of iNOS in RAW264.7 cells at different time points after treatment with B-16-tumour conditioned media followed by BLZ-945 or BLN101 (as AK750 formulation) treatment across different time points. […] Treatment of monocytes with IL4 is known to facilitate the differentiation of monocytes into macrophages. Further, activation of CSF1R skews it to a M2 phenotype. […] At different time points analysis of the cells for expression of markers CD11b+CD206+, CD11b+MHC-II+, CD11b+CD86+ and CD11b+CD80+ on the cells using flow cytometry. […] (FIG. 4). […] At different time-points, the cells are harvested and analyzed the population for M1 (MHCII+, CD86+, CD80+) or M2 (CD206+) markers using fluorescence activated cell sorting (FIG. 5d). […]",
  "data": [
    {"smiles": "CNC(=O)c1cc(Oc2ccc3nc(N[C@@H]4CCCC[C@H]4O)sc3c2)ccn1", "note": "[BLZ-945]", "values": [
      {"measurement": "M1 markers (MHCII+, CD86+, CD80+)", "result": "did not increase the M1 markers"},
      {"measurement": "M2 phenotype (CD206+)", "result": "at early time-points is observed, but this effect was lost at later time points"}
    ]}
  ]
}
